# Laboratory results as given in patent US20250230193A1, “CYCLIC COMPOUND HAVING SELECTIVE KRAS INHIBITORY EFFECT ON HRAS AND NRAS” (CHUGAI SEIYAKU KABUSHIKI KAISHA, priority 2022, published 2025).
# *1 amine or outer side, *2 acyl side, *3 side chain or, on linkers, in order; H or OH if unused. Where a SMILES comes first, the peptide text is derived from it. Bridges are numbered along the chain shown (N, C = ends). [ ]: non-standard residue; d: D form. The star is where a group is joined. hPhe(3-Cl-4-CF3) = N[C@@H](CCc1ccc(C(F)(F)F)c(Cl)c1)C(=O)O; X17 = CCCCN([C@@H](Cc1ccc(C(F)(F)F)cc1)C(=O)[*:2])[*:1]; X44 = CCCN([C@@H](Cc1ccccc1)C(=O)[*:2])[*:1]; NMeGly(cPent) = CN[C@H](C(=O)O)C1CCCC1; NMeD = CN[C@@H](CC(=O)O)C(=O)O; NMeL = CN[C@@H](CC(C)C)C(=O)O; Morpholide = C1CN(*)CCO1; NMeA = CN[C@@H](C)C(=O)O; Ac5c = NC1(C(=O)O)CCCC1; Aze = O=C(O)[C@@H]1CCN1; Sar = CNCC(=O)O
# How the values were obtained:
# [1] = biological target: GDP-bound NRAS wild-type protein (Homo sapiens, UniProt P01111); assay: Binding to NRAS by surface plasmon resonance (SPR), Single Cycle Kinetics; details: SPR
# Sequence of GDP-bound NRAS wild-type protein (P01111 whole entry): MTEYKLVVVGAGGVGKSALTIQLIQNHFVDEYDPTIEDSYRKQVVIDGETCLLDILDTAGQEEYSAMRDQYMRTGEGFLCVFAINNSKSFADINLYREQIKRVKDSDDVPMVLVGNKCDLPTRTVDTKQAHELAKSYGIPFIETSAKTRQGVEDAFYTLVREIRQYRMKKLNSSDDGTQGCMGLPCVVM
# [2] = biological target: GDP-bound HRAS wild-type protein (Homo sapiens, UniProt P01112); assay: Binding to HRAS by surface plasmon resonance (SPR), Single Cycle Kinetics; details: SPR
# Sequence of GDP-bound HRAS wild-type protein (P01112 whole entry): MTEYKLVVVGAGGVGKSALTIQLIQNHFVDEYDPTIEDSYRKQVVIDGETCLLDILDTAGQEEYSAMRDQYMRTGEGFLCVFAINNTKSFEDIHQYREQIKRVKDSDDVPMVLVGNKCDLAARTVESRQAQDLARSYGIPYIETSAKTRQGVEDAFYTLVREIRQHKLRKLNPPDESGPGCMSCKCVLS
# [3] = KD ratio, GDP-bound NRAS wild-type vs GDP-bound KRAS wild-type
# [4] = KD ratio, GDP-bound HRAS wild-type vs GDP-bound KRAS wild-type
smiles,measurement,setting,value
CCCN(C)C(=O)[C@@H]1CC(=O)N(C)[C@@H](C2CC2)C(=O)N[C@@H]([C@@H](C)CC)C(=O)N(C)CC(=O)N(C)[C@H]2C/C=C\CCN(C2=O)[C@@H](Cc2ccc(C(F)(F)F)cc2)C(=O)N(C)CC(=O)N[C@@H](CCc2ccc(C(F)(F)F)c(OC)c2)C(=O)N2C[C@H](OCC)C[C@H]2C(=O)NC2(CC(C)(C)C2)C(=O)N(C)[C@@H](C2CCCC2)C(=O)N1C [PP1983],NRAS/KRAS (ratio of KD value for NRAS to KD value for KRAS),[1]; [3],AA (a compound having 20 or more is denoted as AA)
same,HRAS/KRAS (ratio of KD value for HRAS to KD value for KRAS),[2]; [4],A (a compound having 10 or more and less than 20 is denoted as A)
CCO[C@@H]1C[C@H]2C(=O)NC3(CCC3)C(=O)N(C)[C@@H](C3CCCC3)C(=O)N(C)[C@H](C(=O)N(C)C)CC(=O)N(C)[C@@H](Cc3ccc(C)cc3)C(=O)N[C@@H]([C@@H](C)CC)C(=O)N(C)CC(=O)N(C)[C@H]3CCCCCN(C3=O)[C@@H](Cc3ccc(C(F)(F)F)cc3)C(=O)N(C)CC(=O)N[C@@H](CCc3cc(F)c(C(F)(F)F)c(F)c3)C(=O)N2C1 [PP0943],NRAS/KRAS (ratio of KD value with respect to NRAS to KD value with respect to KRAS),[1]; [3],B (a compound having 3 or more and less than 10 is denoted as B)
same,HRAS/KRAS (ratio of KD value with respect to HRAS to KD value with respect to KRAS),[2]; [4],B (a compound having 3 or more and less than 10 is denoted as B)
CCCN1C(=O)[C@@H]2CCN2C(=O)[C@H](C)N(C)C(=O)[C@H]([C@@H](C)CC)NC(=O)[C@H](CC(C)C)N(C)C(=O)C[C@@H](C(=O)N2CCOCC2)N(C)C(=O)[C@H](C2CCCC2)N(C)C(=O)C2(CCCC2)NC(=O)[C@@H]2CCCN2C(=O)[C@H](CCc2ccc(C(F)(F)F)c(Cl)c2)NC(=O)CN(C)C(=O)[C@@H]1Cc1ccccc1 [PP0216] ([NMeL]I[NMeA][Aze][X44][Sar][hPhe(3-Cl-4-CF3)]P[Ac5c][NMeGly(cPent)][NMeD]-Morpholide; lactam N-11),NRAS/KRAS (ratio of KD for GDP-bound NRAS wild-type to KD for KRAS),[1]; KD ratio NRAS/KRAS,C (A compound having a KD ratio of 0.1 or more and less than 3 is denoted as C)
same,HRAS/KRAS (ratio of KD for GDP-bound HRAS wild-type to KD for KRAS),[2]; KD ratio HRAS/KRAS,B (a compound having 3 or more and less than 10 is denoted as B)
CCO[C@@H]1C[C@H]2C(=O)NC3(CCC3)C(=O)N(C)[C@@H]([C@H](C)CC)C(=O)N(C)[C@H](C(=O)N3CCOCC3)CC(=O)N(C)[C@@H](CC(C)C)C(=O)N[C@@H]([C@@H](C)CC)C(=O)N(C)CC(=O)N(C)[C@H]3CCCCCN(C3=O)[C@@H](Cc3ccc(C(F)(F)F)cc3)C(=O)N(C)CC(=O)N[C@@H](CCc3cc(F)c(C(F)(F)F)c(F)c3)C(=O)N2C1 [PP0821],NRAS/KRAS (ratio of KD value with respect to NRAS to KD value with respect to KRAS),[1]; [3],A (a compound having 10 or more and less than 20 is denoted as A)
same,HRAS/KRAS (ratio of KD value with respect to HRAS to KD value with respect to KRAS),[2]; [4],B (a compound having 3 or more and less than 10 is denoted as B)
CCCCN1C(=O)CN(C)C(=O)CN(C)C(=O)[C@H]([C@@H](C)CC)NC(=O)[C@H](CC(C)C)N(C)C(=O)C[C@@H](C(=O)N2CCOCC2)N(C)C(=O)[C@H](C2CCCC2)N(C)C(=O)C2(CCCC2)NC(=O)[C@@H]2CCCN2C(=O)[C@H](CCc2ccc(C(F)(F)F)c(Cl)c2)NC(=O)CN(C)C(=O)[C@@H]1Cc1ccc(C(F)(F)F)cc1 [PP0120] ([NMeL]I[Sar][Sar][X17][Sar][hPhe(3-Cl-4-CF3)]P[Ac5c][NMeGly(cPent)][NMeD]-Morpholide; lactam N-11),NRAS/KRAS (ratio of KD for GDP-bound NRAS wild-type to KD for KRAS),[1]; KD ratio NRAS/KRAS,B (a compound having 3 or more and less than 10 is denoted as B)
same,HRAS/KRAS (ratio of KD for GDP-bound HRAS wild-type to KD for KRAS),[2]; KD ratio HRAS/KRAS,C (A compound having a KD ratio of 0.1 or more and less than 3 is denoted as C)
CC[C@H](C)[C@@H]1NC(=O)[C@H](CC(C)C)N(C)C(=O)C[C@@H](C(=O)N2CCOCC2)N(C)C(=O)[C@H](C2CCCC2)N(C)C(=O)C2(CCCC2)NC(=O)[C@@H]2CCCN2C(=O)[C@H](CCc2ccc(C(F)(F)F)c(Cl)c2)NC(=O)CN(C)C(=O)[C@H](Cc2ccc(C(F)(F)F)cc2)N2CC/C=C\C[C@@H](C2=O)N(C)C(=O)CN(C)C1=O [PP0463],NRAS/KRAS (ratio of KD value with respect to GDP-bound NRAS wild-type protein to KD value with respect to KRAS),[1]; KD ratio NRAS/KRAS,A (a compound having 10 or more and less than 20 is denoted as A)
same,HRAS/KRAS (ratio of KD value with respect to GDP-bound HRAS wild-type protein to KD value with respect to KRAS),[2]; KD ratio HRAS/KRAS,A (a compound having 10 or more and less than 20 is denoted as A)
CCO[C@@H]1C[C@H]2C(=O)NC3(CCC3)C(=O)N(C)[C@@H](C3CCCC3)C(=O)N(C)[C@H](C(=O)N(C)C)CC(=O)N(C)[C@@H](CC)C(=O)N[C@@H]([C@@H](C)CC)C(=O)N[C@@H](C)C(=O)N(C)[C@H]3C/C=C\CCN(C3=O)[C@@H](Cc3ccc(C(F)(F)F)cc3)C(=O)N(C)CC(=O)N[C@@H](CCc3cc(F)c(C(F)(F)F)c(F)c3)C(=O)N2C1 [PP1065],NRAS/KRAS (ratio of KD value with respect to NRAS to KD value with respect to KRAS),[1]; [3],A (a compound having 10 or more and less than 20 is denoted as A)
same,HRAS/KRAS (ratio of KD value with respect to HRAS to KD value with respect to KRAS),[2]; [4],B (a compound having 3 or more and less than 10 is denoted as B)
